Values of other authors in patent US8586094B2, “Coated tablets” (Jagotec AG, priority 2000, dated 2013).
Read-outs that look alike come from different tables or passages of the source.

elimination / plasma half-life: approximately twenty
elimination / plasma half-life (listed as Fenofibric acid): about 20 hours
Structure (SMILES): CC(C)(Oc1ccc(C(=O)c2ccc(Cl)cc2)cc1)C(=O)O [fenofibric acid]
